Test results from PubChem BioAssay AID328 (DTP/NCI, 2004).
Where “and” joins values, the source holds several entries; their conditions need not be identical. Equal entries are not always repeated. Inconclusive results and toxic doses are left out. The calls were made as follows: active = survival T/C of 150% or more; inactive = T/C below 125% in these data.

Tested on: BDF1 mice, P388 leukemia ip, median survival T/C
Assay: NCI In Vivo Anticancer Drug Screen. Data for tumor model P388 Leukemia (intraperitoneal) in B6D2F1 (BDF1) mice
Conditions: endpoint: median survival time, higher = longer survival
In short: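 Mice carrying the transplantable tumour receive compound or vehicle. Survival is followed in each arm, and the treated measure is divided by the vehicle measure.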

[1] = dose: 25.0 mg/kg/injection, schedule: Q01DX009 (ip), vehicle: Klucel (hydroxypropylcellulose) (HPC)
[2] = dose: 50.0 mg/kg/injection, schedule: Q01DX009 (ip), vehicle: Klucel (hydroxypropylcellulose) (HPC)
[3] = dose: 100.0 mg/kg/injection, schedule: Q04DX003 (ip), vehicle: Klucel (hydroxypropylcellulose) (HPC)
[4] = dose: 12.5 mg/kg/injection, schedule: Q01DX009 (ip), vehicle: saline with Tween-80
[5] = dose: 25.0 mg/kg/injection, schedule: Q01DX009 (ip), vehicle: saline with Tween-80
[6] = dose: 50.0 mg/kg/injection, schedule: Q01DX009 (ip), vehicle: saline with Tween-80

Measured: T/C

COc1cc(C[C@H]2c3cc(OC)c(OC)cc3CCN2C)c(Oc2cc3c(cc2OC)-c2c(OC)c(OC)cc4c2[C@H](C3)N(C)CC4)cc1OC
inactive: dose: 9.0 mg/kg/injection, schedule: Q01DX010 (ip), vehicle: other 90 % of control | dose: 12.0 mg/kg/injection, schedule: Q01DX005 (ip), vehicle: other 95 % of control | dose: 12.0 mg/kg/injection, schedule: Q01DX010 (ip), vehicle: other 100 % of control | dose: 12.5 mg/kg/injection, schedule: Q01DX010 (ip), vehicle: other 109 % of control | dose: 18.0 mg/kg/injection, schedule: Q04DX003 (ip), vehicle: other 95 % of control | dose: 18.75 mg/kg/injection, schedule: Q01DX010 (ip), vehicle: other 118 % of control | dose: 24.0 mg/kg/injection, schedule: Q01DX005 (ip), vehicle: other 90 % of control | dose: 24.0 mg/kg/injection, schedule: Q01DX010 (ip), vehicle: other 104 % of control | dose: 25.0 mg/kg/injection, schedule: Q01DX010 (ip), vehicle: acetone 104 % of control | dose: 25.0 mg/kg/injection, schedule: Q01DX010 (ip), vehicle: other 104 % of control | dose: 27.0 mg/kg/injection, schedule: Q08DX002 (ip), vehicle: other 100 % of control | dose: 36.0 mg/kg/injection, schedule: Q04DX003 (ip), vehicle: other 90 % of control | dose: 37.5 mg/kg/injection, schedule: Q01DX010 (ip), vehicle: carboxymethylcellulose (CMC) 100 % of control | dose: 37.5 mg/kg/injection, schedule: Q01DX010 (ip), vehicle: other 104 % of control | dose: 48.0 mg/kg/injection, schedule: Q01DX005 (ip), vehicle: other 100 % of control | dose: 48.0 mg/kg/injection, schedule: Q01DX010 (ip), vehicle: other 104 % of control | dose: 50.0 mg/kg/injection, schedule: Q01DX010 (ip), vehicle: acetone 109 % of control | dose: 50.0 mg/kg/injection, schedule: Q01DX010 (ip), vehicle: clinical formulation 109 % of control | dose: 50.0 mg/kg/injection, schedule: Q01DX010 (ip), vehicle: other 120 % of control | dose: 54.0 mg/kg/injection, schedule: Q08DX002 (ip), vehicle: other 95 % of control | dose: 72.0 mg/kg/injection, schedule: Q04DX003 (ip), vehicle: other 100 % of control | dose: 75.0 mg/kg/injection, schedule: Q01DX010 (ip), vehicle: carboxymethylcellulose (CMC) 100 % of control | dose: 96.0 mg/kg/injection, schedule: Q01DX005 (ip), vehicle: other 100 % of control | dose: 96.0 mg/kg/injection, schedule: Q01DX010 (ip), vehicle: other 109 % of control | dose: 100.0 mg/kg/injection, schedule: Q01DX001 (ip), vehicle: carboxymethylcellulose (CMC) 110 % of control | dose: 100.0 mg/kg/injection, schedule: Q01DX010 (ip), vehicle: acetone 113 % of control | dose: 100.0 mg/kg/injection, schedule: Q01DX010 (ip), vehicle: other 120 % of control | dose: 100.0 mg/kg/injection, schedule: Q04DX002 (ip), vehicle: Klucel (hydroxypropylcellulose) (HPC) 100 % of control | dose: 108.0 mg/kg/injection, schedule: Q08DX002 (ip), vehicle: other 100 % of control | dose: 150.0 mg/kg/injection, schedule: Q01DX010 (ip), vehicle: carboxymethylcellulose (CMC) 105 % of control | dose: 200.0 mg/kg/injection, schedule: Q01DX001 (ip), vehicle: carboxymethylcellulose (CMC) 105 % of control | dose: 200.0 mg/kg/injection, schedule: Q01DX010 (ip), vehicle: other 100 % of control | dose: 200.0 mg/kg/injection, schedule: Q04DX002 (ip), vehicle: Klucel (hydroxypropylcellulose) (HPC) 91 % of control | dose: 216.0 mg/kg/injection, schedule: Q08DX002 (ip), vehicle: other 100 % of control | dose: 400.0 mg/kg/injection, schedule: Q01DX001 (ip), vehicle: carboxymethylcellulose (CMC) 110 % of control | dose: 400.0 mg/kg/injection, schedule: Q04DX002 (ip), vehicle: Klucel (hydroxypropylcellulose) (HPC) 100 % of control

CCOC(=O)C(C(=O)OCC)=C(C#N)c1c[nH]c2ccccc12
inactive: dose: 12.5 mg/kg/injection, schedule: Q01DX009 (ip), vehicle: Klucel (hydroxypropylcellulose) (HPC) 90 % of control | [1] 104 % of control | [2] 104 % of control | [3] 95 % of control | dose: 200.0 mg/kg/injection, schedule: Q04DX003 (ip), vehicle: Klucel (hydroxypropylcellulose) (HPC) 100 % of control | dose: 400.0 mg/kg/injection, schedule: Q04DX003 (ip), vehicle: Klucel (hydroxypropylcellulose) (HPC) 109 % of control

COc1cc2ccc3c[n+]4ccccc4cc3c2cc1OC
inactive: [1] 102 % of control | dose: 25.0 mg/kg/injection, schedule: Q01DX009 (ip), vehicle: saline 112 % of control | [2] 116 % of control | dose: 50.0 mg/kg/injection, schedule: Q01DX009 (ip), vehicle: saline 117 % of control | dose: 100.0 mg/kg/injection, schedule: Q01DX009 (ip), vehicle: saline 114 % of control | dose: 150.0 mg/kg/injection, schedule: Q01DX009 (ip), vehicle: Klucel (hydroxypropylcellulose) (HPC) 118 % of control

CCCCN1CCC2(CC1)COCc1ccccc12
inactive: dose: 12.5 mg/kg/injection, schedule: Q04DX003 (ip), vehicle: saline with Tween-80 104 % of control | dose: 25.0 mg/kg/injection, schedule: Q04DX003 (ip), vehicle: saline with Tween-80 98 % of control | dose: 50.0 mg/kg/injection, schedule: Q04DX003 (ip), vehicle: saline with Tween-80 95 % of control

CSc1ccc2c(c1)C(N1CCN(C)CC1)Cc1ccccc1S2 (configuration not stated)
inactive: dose: 6.25 mg/kg/injection, schedule: Q04DX003 (ip), vehicle: saline 113 % of control | dose: 25.0 mg/kg/injection, schedule: Q04DX003 (ip), vehicle: saline 114 % of control | dose: 50.0 mg/kg/injection, schedule: Q04DX003 (ip), vehicle: saline 107 % of control

CCOC(=O)N1c2ccccc2C=CC1/C(N)=N/O (configuration not stated)
inactive: [1] 109 % of control | [2] 95 % of control | dose: 50.0 mg/kg/injection, schedule: Q04DX003 (ip), vehicle: Klucel (hydroxypropylcellulose) (HPC) 95 % of control | dose: 100.0 mg/kg/injection, schedule: Q01DX009 (ip), vehicle: Klucel (hydroxypropylcellulose) (HPC) 104 % of control | [3] 95 % of control

O=C1NC2C(NC(=O)N2Cl)N1Cl (configuration not stated)
inactive: [4] 103 % of control | [5] 100 % of control | [6] 103 % of control

CC(=O)OC(C)(C(=O)/C=C/C(C)(C)O)C1C(O)CC2(C)C3CC=C4C(C=C(O)C(=O)C4(C)C)C3(C)C(=O)CC12C (configuration not stated)
inactive: dose: 0.25 mg/kg/injection, schedule: Q01DX010 (ip), vehicle: carboxymethylcellulose (CMC) 100 % of control | dose: 0.5 mg/kg/injection, schedule: Q01DX010 (ip), vehicle: carboxymethylcellulose (CMC) 96 % of control | dose: 1.0 mg/kg/injection, schedule: Q01DX010 (ip), vehicle: carboxymethylcellulose (CMC) 98 % of control | dose: 2.0 mg/kg/injection, schedule: Q01DX010 (ip), vehicle: carboxymethylcellulose (CMC) 117 % of control | dose: 4.0 mg/kg/injection, schedule: Q01DX010 (ip), vehicle: carboxymethylcellulose (CMC) 105 % of control

CC(C)NC(=O)c1ccccc1-[s+]1c2ccccc2c(=O)n1C(C)C (configuration not stated)
inactive: dose: 100.0 mg/kg/injection, schedule: Q04DX003 (ip), vehicle: saline with Tween-80 94 % of control | dose: 200.0 mg/kg/injection, schedule: Q04DX003 (ip), vehicle: saline with Tween-80 96 % of control | dose: 400.0 mg/kg/injection, schedule: Q04DX003 (ip), vehicle: saline with Tween-80 96 % of control

Oc1cc(CN2CCCC2)c(O)cc1CN1CCCC1
inactive: [4] 111 % of control | [5] 106 % of control | [6] 111 % of control | dose: 100.0 mg/kg/injection, schedule: Q01DX009 (ip), vehicle: saline with Tween-80 122 % of control

c1ccc([C@H]2CN3CCSC3=N2)cc1
inactive: dose: 0.15 mg/kg/injection, schedule: Q01DX009 (ip), vehicle: saline 100 % of control | dose: 0.31 mg/kg/injection, schedule: Q01DX009 (ip), vehicle: saline 100 % of control | dose: 0.63 mg/kg/injection, schedule: Q01DX009 (ip), vehicle: saline 100 % of control and 122 % of control | dose: 1.25 mg/kg/injection, schedule: Q01DX009 (ip), vehicle: saline 97 % of control and 104 % of control | dose: 2.5 mg/kg/injection, schedule: Q01DX009 (ip), vehicle: saline 99 % of control and 104 % of control | dose: 5.0 mg/kg/injection, schedule: Q01DX009 (ip), vehicle: saline 100 % of control | dose: 10.0 mg/kg/injection, schedule: Q01DX009 (ip), vehicle: saline 94 % of control and 100 % of control | dose: 20.0 mg/kg/injection, schedule: Q01DX009 (ip), vehicle: saline 94 % of control and 100 % of control
